As a reminder, the EC50 is the concentration giving half of the maximal effect.

One assay has as its system HT-1080 (ATCC, CCL-121) cells. Kind of assay: HT-1080 cell viability assay with ferroptosis inducer RSL3 (Cell Titer-Glo). Type of assay: cell-based. To be noted: HT-1080 cells treated with RSL3; 3-fold, 10-point dilution, 1.1 μM highest concentration; Table 3; read-out: EC50 (nM), ferroptosis inhibitory activity. The procedure, abridged:
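EC50 was derived by sigmoidal dose-response regression of CellTiter-Glo luminescence viability, expressed relative to untreated wells. Compounds were tested in a ten-point, threefold dilution series (highest 1.1 μM) in the presence of the ferroptosis inducer RSL3. HT-1080 cells had been seeded at 6000 per well and grown overnight first.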
Background: In ATP-based viability assays light output follows the ATP content of the culture.
For `Cc1cc(N2CCC(C(F)(F)F)CC2)ccc1Nc1ccc2c(c1)OCC(=O)N2` [Compound 515, 7-((2-methyl-4-(4-(trifluoromethyl)piperidin-1-yl)phenyl)amino)-2H-benzo[b][1,4]oxazin-3(4H)-one], the EC50 is 0.1 to 100 nM.

Still in this assay, the particulars now being: Homo sapiens; HT-1080 cells treated with RSL3; 3-fold, 10-point dilution, 1.1 μM highest concentration; Table 2; read-out: EC50 (nM), ferroptosis inhibitory activity.
For the compound `CC1CN(c2ccc(Nc3ccc4c(=O)n(C)[nH]c4c3)cc2)CC(C)O1` (stereo not shown) [Compound 432, 6-((4-(2,6-dimethylmorpholino)phenyl)amino)-2-methyl-1H-indazol-3(2H)-one], the EC50 was in the range of 0.1 to 100 nM.

As to `CN1Cc2ccc(Nc3ccc(N4CCC(C(F)(F)F)CC4)c(F)c3)cc2C1=O` [Compound 169, 6-((3-fluoro-4-(4-(trifluoromethyl)piperidin-1-yl)phenyl)amino)-2-methylisoindolin-1-one], the EC50 lay in the range of 0.1 to 100 nM.

Take `CN(C)CCn1c(=O)n(C)c2cc(Nc3ccc(C4CCC(C)(C)CC4)cc3)ccc21` [Compound 405, 1-(2-(dimethylamino)ethyl)-5-((4-(4,4-dimethylcyclohexyl)phenyl)amino)-3-methyl-1,3-dihydro-2H-benzo[d]imidazol-2-one]: the EC50 was 0.1 to 100 nM.

For the compound `CN1C(=O)COc2cc(Nc3ccc(OC4CCCCC4)cc3)ccc21` [Compound 7, 7-((4-(cyclohexyloxy)phenyl)amino)-4-methyl-2H-benzo[b][1,4]oxazin-3(4H)-one], the EC50 was in the range of 0.1 to 100 nM.

`Cc1cc(N2CC(C)OC(C)C2)ccc1Nc1ccc2oc(=O)n(C)c2c1` (stereo not shown) [Compound 446, 5-((4-(2,6-dimethylmorpholino)-2-methylphenyl)amino)-3-methylbenzo[d]oxazol-2(3H)-one]: the EC50 was 0.1 to 100 nM.

As for `CN(CC(F)(F)F)c1ccc(Nc2ccc3c(c2)OCC(=O)N3C)cc1` [Compound 134], the EC50 was 0.1 to 100 nM.

On to `CN1C(=O)COc2cc(Nc3ccc(N4CCC(C(F)(F)F)CC4)cc3)cc(F)c21` [Compound 88, 5-fluoro-4-methyl-7-((4-(4-(trifluoromethyl)piperidin-1-yl)phenyl)amino)-2H-benzo[b][1,4]oxazin-3(4H)-one], for which the EC50 was in the range of 0.1 to 100 nM.

`CC1CCN(c2ccc(Nc3ccc4c(c3)CN(C)C4=N)cc2)CC1` [Compound 294, 1-imino-2-methyl-N-(4-(4-methylpiperidin-1-yl)phenyl)isoindolin-5-amine]: the EC50 lay in the range of 0.1 to 100 nM.

In the case of `COCCCN1C(=O)COc2cc(Nc3ccc(N4CCC(C(F)(F)F)CC4)cc3)ccc21` [Compound 10, 4-(3-methoxypropyl)-7-((4-(4-(trifluoromethyl)piperidin-1-yl)phenyl)amino)-2H-benzo[b][1,4]oxazin-3(4H)-one], the EC50 was in the range of 0.1 to 100 nM.

As to `Cn1c(=O)oc2cc(Nc3ccc(N4CCC(CF)CC4)cc3)ccc21` [Compound 387, 6-((4-(4-(fluoromethyl)piperidin-1-yl)phenyl)amino)-3-methylbenzo[d]oxazol-2(3H)-one], the EC50 was 0.1 to 100 nM.

In the case of `CN1C(=O)OCc2cc(Nc3ccc(N4CCC(C(F)(F)F)CC4)cc3)ccc21` [Compound 128, 1-methyl-6-((4-(4-(trifluoromethyl)piperidin-1-yl)phenyl)amino)-1,4-dihydro-2H-benzo[d][1,3]oxazin-2-one], the EC50 was 0.1 to 100 nM.

For the compound `CC1CCN(c2ccc(Nc3ccc4c(ccn4C)c3)cc2)CC1` [Compound 329, 1-methyl-N-(4-(4-methylpiperidin-1-yl)phenyl)-1H-indol-5-amine], the EC50 fell in the range of 0.1 to 100 nM.

With `O=C1COc2cc(Nc3ccc(N4CCC(C(F)(F)F)CC4)cc3)ccc2N1CCO` [Compound 83], the EC50 fell in the range of 0.1 to 100 nM.

On to `Cn1oc2cc(Nc3ccc(N4CCC(C(F)(F)F)CC4)cc3)ccc2c1=O` [Compound 187, 2-methyl-6-((4-(4-(trifluoromethyl)piperidin-1-yl)phenyl)amino)benzo[d]isoxazol-3(2H)-one], for which the EC50 fell in the range of 0.1 to 100 nM.

Regarding `CCn1c(=O)cnc2cc(Nc3ccc(N4CCC(C)CC4)cc3)ccc21` [Compound 117], the EC50 is 0.1 to 100 nM.

Consider `Cn1c(=O)oc2cc(Nc3ccc(N4CC5(CCCC5)C4)cc3)ccc21` [Compound 316, 6-((4-(2-azaspiro[3.4]octan-2-yl)phenyl)amino)-3-methy/benzo[d]oxazol-2′3H-one], for which the EC50 lay in the range of 0.1 to 100 nM.

`Cc1cc(N2CCC(C(F)(F)F)CC2)cc(C)c1Nc1ccc2c(c1)OCC(=O)N2C` [Compound 79, 7-((2,6-dimethyl-4-(4-(trifluoromethyl)piperidin-1-yl)phenyl)amino)-4-methyl-2H-benzo[b][1,4]oxazin-3(4H)-one]: the EC50 is 0.1 to 100 nM.

The assay is the same for the next values; noted with them: Homo sapiens; HT-1080 cells treated with RSL3; 3-fold, 10-point dilution, 1.1 μM highest concentration; Table 3; read-out: EC50 (nM), ferroptosis inhibitory activity.
For `Cc1cc(N2CCN(CC(F)(F)F)[C@@H](C)C2)ccc1Nc1ccc2c(c1)OCC(=O)N2` [Compound 580, (S)-7-((2-methyl-4-(3-methyl-4-(2,2,2-trifluoroethyl)piperazin-1-yl)phenyl)amino)-2H-benzo[b][1,4]oxazin-3(4H)-one], the EC50 is 0.1 to 100 nM.

Regarding `Cc1cc(N2CCC(C(F)(F)F)CC2)ccc1Nc1ccc2c(c1)C(=O)NCC(=O)N2` [Compound 644, 7-((2-methyl-4-(4-(trifluoromethyl)piperidin-1-yl)phenyl)amino)-3,4-dihydro-1H-benzo[e][1,4]diazepine-2,5-dione], the EC50 was 0.1 to 100 nM.

In the case of `Cc1cc(N2CCC(F)(F)CC2)ccc1Nc1ccc2c(c1)OCCC(=O)N2` [Compound 629, 8-((4-(4,4-difluoropiperidin-1-yl)-2-methylphenyl)amino)-2,3-dihydrobenzo[b][1,4]oxazepin-4(5H)-one], the EC50 fell in the range of 0.1 to 100 nM.

With `CC(C)(O)C1CCN(c2ccc(Nc3ccc4c(c3)OCC(=O)N4)cc2)CC1` [Compound 543, 7-((4-(4-(2-hydroxypropan-2-yl)piperidin-1-yl)phenyl)amino)-2H-benzo[b][1,4]oxazin-3(4H)-on], the EC50 lay in the range of 0.1 to 100 nM.

For the compound `Cc1cc(N2CC(OC(F)(F)F)C2)ccc1Nc1ccc2c(c1)OCC(O)C(=O)N2` (stereo not shown) [Compound 657, 3-hydroxy-8-[2-methyl-4-[3-(trifluoromethoxy)azetidin-1-yl]anilino]-3,5-dihydro-2H-1,5-benzoxazepin-4-one], the EC50 fell in the range of 0.1 to 100 nM.

Regarding `Cc1cc(N2CCC(O)(C(F)(F)F)CC2)ccc1Nc1ccc2c(c1)OCC(=O)N2` [Compound 509, 7-((4-(4-hydroxy-4-(trifluoromethyl)piperidin-1-yl)-2-methylphenyl)amino)-2H-benzo[b][1,4]oxazin-3(4H)-one], the EC50 lay in the range of 0.1 to 100 nM.

For `Cc1cc(Nc2ccc3c(c2)OCC(=O)N3CCO)ccc1N1CC(C)OC(C)C1` (stereo not shown) [Compound 455, 7-((4-(2,6-dimethylmorpholino)-3-methylphenyl)amino)-4-(2-hydroxyethyl)-2H-benzo[b][1,4]oxazin-3(4H)-one], the EC50 is 0.1 to 100 nM.

Values taken from US20240327393A1 (SIRONAX LTD., priority 2021, published 2024).
